We go through two compounds from patent US20220056012A1, “AMORPHOUS FORM OF A MALT1 INHIBITOR AND FORMULATIONS THEREOF” (Janssen Pharmaceutica NV, priority 2020, published 2022).

Type in all cases: physicochemical
Data set [1] is described as follows: Dissolution in 900 mL FaSSIF medium at pH 6.5 (FIG. 20). The settings on record: pH 6.5, capsules in blend. The protocol:
FIG. 20: Dissolution rates of different compositions in 900 mL FaSSIF medium at pH 6.5. The different compositions are: 25 mg ASD capsule HPMC AS MG 1/3 in blend; 50 mg ASD capsule HPMC AS MG 1/1 in blend; 50 mg ASD capsule EL100-55 1/1 in blend; 50 mg LFHG PEG1500 (liquid filled) capsule; 100 mg capsule amorphous API in blend; 25 mg ASD capsule EL100-55 1/3 in blend; and 100 mg capsule crystalline API in blend.

The nature of data set [2]: Hygroscopicity of crystalline form.
The nature of data set [3]: Crystalline conversion of isolated amorphous Compound A on storage.
The nature of data set [4]: Glass transition temperature (Tg) by DSC, Tg vs % RH. The settings on record: amorphous Compound A without polymer. The protocol: The Tg vs RH results for HPMCAS-LG amorphous SDDs (FIG. 18 and Table 10) show the Tg's range from 111 to 119° C. under dry conditions and are depressed down to 52 to 59° C. at 75% RH. Both dry and wet Tg increase with increased drug loading.

The nature of data set [5]: 2-phase (SGF/FaSSIF) miniaturized dissolution of films. The settings on record: SGF-FaSSIF, 37° C., films with 200 μg Compound A. The protocol:
In vitro, 2-phase (SGF/FaSSIF) miniaturized dissolution was performed, where the amount of dissolved compound A was monitored in function of time. Before starting the dissolution assay, the films were stored for one day at room temperature. By doing so, most of the residual solvent had evaporated. Actual dissolution experiments were performed in 96 1 mL glass vials using the Hamilton STAR plus liquid handling platform for both sampling and sample preparation. Before adding the dissolution media to the films, an equilibration time of approximately 60 minutes was needed to preheat the media to 37° C. After equilibration, 300 μL of preheated SGF (37° C., pH 1.3) was added to the amorphous solid dispersions. After 15 minutes of incubation in SGF, 600 μL of preheated concentrated FaSSIF (37° C., pH 10.5) was added to the samples. […] At predetermined time intervals, aliquots were withdrawn from the dissolution media and filtered through a 0.45 μm GHP membrane filter. Subsequently, the filtered solutions were quantitatively diluted (10×) with N-methylpyrrolidone (NMP) to prevent possible precipitation. The amount of dissolved compound A was determined by UPLC. Films were incubated at 37° C. throughout the entire assay. Experiments were performed in duplicate.

Data set [6] is described as follows: Stability of amorphous formulations by XRD at normal and accelerated conditions. The protocol: Stability of the prepared formulations of Compound A was measured by XRD at normal and accelerated conditions, showing that all the prepared formulations of the compound, be it alone or combined with a polymer, are amorphous.

SMILES strings stand for the structures.

As to `O=C(Nc1ccnc(C(F)(F)F)c1)c1cnn(-c2cccc3c(=O)[nH]ccc23)c1C(F)(F)F` [Form I, 1-(1-oxo-1,2-dihydroisoquinolin-5-yl)-5-(trifluoromethyl)-N-[2-(trifluoromethyl)pyridin-4-yl]-1H-pyrazole-4-carboxamide], in data set [1], the dissolution rate entry is listed as “dropped considerably”. The hygroscopicity entry in data set [2] is reported as “hygroscopic behavior”.
For the compound `O=C(Nc1ccnc(C(F)(F)F)c1)c1cnn(-c2cccc3c(=O)[nH]ccc23)c1C(F)(F)F` [amorphous form of Compound A, 1-(1-oxo-1,2-dihydroisoquinolin-5-yl)-5-(trifluoromethyl)-N-[2-(trifluoromethyl)pyridin-4-yl]-1H-pyrazole-4-carboxamide], the “solid state after storage (stability DSC data)” value in data set [3] (6 MOS at 40°/75% RH, open-dish) is given as “still amorphous”. The “crystalline conversion after exposure” value is “no crystalline conversion” in data set [3] (10% RH, 50° C., 28 days); “no crystalline conversion” in data set [3] (75% RH, 40° C., open condition, 6 months); “no crystalline conversion” in data set [3] (75% RH, 50° C., 28 days); “no crystalline conversion” in data set [3] (75% RH, 50° C., closed condition, 6 months). Moreover, the glass transition temperature in data set [4] amounted to 133 °C; in data set [4] (listed as spray dried Compound A), 132 °C. In addition, the “initial release, concentration” value in data set [5] fell in the range of 60 to 80 µg/mL. Moreover, the XRD result in data set [6] (40° C. closed 1M), in data set [6] (40° C. closed 2M), in data set [6] (40° C. closed 6M), in data set [6] (40° C./75% RH open 6M), in data set [6] (40° C/75% RH open 1M) and in data set [6] (40° C/75% RH open 2M) was “amorph” in each case. Further, the XRD result in data set [6] (50° C. closed 1M), in data set [6] (50° C. closed 2M), in data set [6] (50° C. closed 6M), in data set [6] (RT closed 1M), in data set [6] (RT closed 2M) and in data set [6] (RT closed 6M) was “amorph” throughout. The XRD result in data set [6] (RT/56% RH open 1M), in data set [6] (RT/56% RH open 2M), in data set [6] (RT/56% RH open 6M) and in data set [6] (T0) was “amorph” throughout.
